# “And” between values parts separate entries of the source, which are not always exact repeats. Equal entries are not always repeated.
# Tests used:
# [1] = Polymorphism: solid forms found in salt screen by HT-XRPD; assay type: physicochemical; details: Example 1 salt screen in MeOH, DME, THF
# Protocol: The precipitated solids were analyzed by high throughput X-ray powder diffractometry (HT XRPD). Liquid phases (both solutions and mother liquors) were evaporated at ambient conditions and the residual solids were analyzed by HT XRPD.
# The salt screen experiments were carried out in methanol (MeOH), 1,2-dimethoxyethane (DME) and tetrahydrofuran (THF).
# [2] = Aqueous solubility of salts, Example 1 (aliquot addition; HPLC after 24 h at RT; pH of solutions/mother liquors); details: Example 1; RT; aliquot addition (ranges) or HPLC after 24 h, not in Table 3
# Protocol: The aqueous solubility of the salts was estimated qualitatively by the solvent aliquot addition method. Aliquots of water up to 500-600 μL were added to approximately 5 mg of salt. The solubility of the free base was also estimated.
# The suspensions were let equilibrating at room temperature for 24 h. Afterwards, solids were separated from the liquid phases. The liquid phases were filtered and analyzed by HPLC to determine the solubility. The pH of solutions/mother liquors was also measured.
# Suspensions of the two salts were prepared in water with a concentration of 9-10 mg/mL. The mixtures were let equilibrating at RT for 24 h. Afterwards, solids were separated from the liquid phases. The liquid phases were filtered and analyzed by HPLC to determine the solubility. The pH of mother liquors was also measured.
# [3] = Hygroscopicity by Dynamic Vapor Sorption (DVS); assay type: physicochemical; details: based on water vapour uptake at 25° C./80% RH
# Protocol: The hygroscopic behaviour of the salts was evaluated through Dynamic Vapor Sorption (DVS) measurements with an RH profile 40-95-0-40% at 25° C. and a dm/dt of 0.002. The classification of the hygroscopic behaviour is based on the water vapour uptake at 25° C./80% RH in first adsorption cycle of sorption isotherm.
# [4] = Polymorphic landscape by thermocycling of amorphous salt in 15 solvents; assay type: physicochemical; details: for polymorphs found: Example 3, thermocycling from amorphous salt, 15 solvents; for HT-XRPD Vac.: vacuum-dried solid; for HT-XRPD Vac. (AAC): vacuum-dried solid after AAC 48 h; for HT-XRPD Evap.: evaporated liquid; for HT-XRPD Evap. (AAC): evaporated liquid after AAC 48 h
# [5] = Intrinsic dissolution rate (rotating disc, μDiss) in water and FaSSIF; assay type: physicochemical; details: for IDR (mg/cm^2/min) Individual: single disc
# Protocol: Rotating disc intrinsic dissolution determinations were performed with a μDiss apparatus (Pion, USA) equipped with 6 independent glass fiber probes each connected to a diode area. Before the start of the experiment the probes were calibrated using the spectrum of a Mercury 362 nm pen-ray lamp. Discs were prepared in a passivated aluminum dye with a mini-IDR press (Heath Scientific, UK).
# Six dilutions of benzamil lactate salt were prepared in the dissolution media in the range from 0 to 0.5 mg/mL, and the solutions were stirred with a cross-shaped magnetic stirrer. These dilutions were used for the calibration curve which is used for the calculation of the amount of benzamil in solution. Moreover, the solutions were used to select the wavelength at which the samples were to be measured and to select the proper path length.
# The dyes were placed in their Teflon holder magnet stirrer and placed into 20 mL glass vials. Before to the sample measurement, a blank of each media was taken in the respective channel. The experiment started by the gentle addition of the pre-warmed dissolution media. Vials were incubated at 37° C. under continuous stirring at 100 rpm for a maximum of 4 h. UV absorption was measured with the in-line probes at regular intervals. Upon completion of the experiment the pH of the solution was determined. Concentrations of API in solution were calculated with use of the calibration curve and plotted against time. Dissolution rates were calculated over the linear parts of the curves. All dissolution rate experiments were done in triplicate except for TFA1 which were done in duplicate due to the lack of material.
# [6] = Physio-chemical stability study, open container 25° C./60% RH and 40° C./75% RH (UPLC, TGMS, HT-XRPD); assay type: physicochemical; details: for UPLC 1 week / UPLC 3 weeks / UPLC 3 days: chemical purity
# Protocol: Open container at 25° C. and 60% RH • 2. Open container at 40° C. and 75% RH
# [7] = Kinetic and thermodynamic solubility in water at 37° C. (1 h and 18 h, UPLC)
# [8] = Physical stability under Accelerated Aging Conditions (AAC, 40° C./75% RH, 2 days), HT-XRPD
# [9] = thermocycling in Acetone/water (95/5% v/v)
# [10] = thermocycling in EtOH/water (95/5% v/v)
# [11] = thermocycling in IPA/water (95/5% v/v)
# [12] = open container 25° C. and 60% RH
# [13] = open container 40° C. and 75% RH
# [14] = water, 37° C., 30 mg/ml suspension
smiles,measurement,setting,value
CC(O)C(=O)O.NC(=NCc1ccccc1)NC(=O)c1nc(Cl)c(N)nc1N [LAC1],Polymorphism,[1],No
same,Polymorphism,[1]; listed as lactate salt,Only one polymorph
same,Water solubility,[2],26 to 51 mg/mL
same,classification of hygroscopic behaviour,[3],slightly hygroscopic
same,polymorphs found,[4]; listed as benzamil lactate salt,not to be polymorphic
same,polymorphs found,[4]; listed as lactate salt,Only one polymorph
same,HT-XRPD Vac.,"[4]; thermocycling in 1,4-Dioxane",LAC1
same,HT-XRPD Vac. (AAC),"[4]; thermocycling in 1,4-Dioxane",LAC1
same,HT-XRPD Vac.,[4]; thermocycling in ACN,LAC1
same,HT-XRPD Vac. (AAC),[4]; thermocycling in ACN,LAC1
same,HT-XRPD Vac.,[4]; thermocycling in Acetone,LAC1
same,HT-XRPD Vac. (AAC),[4]; thermocycling in Acetone,LAC1
same,HT-XRPD Vac.,[4]; [9],LAC1
same,HT-XRPD Vac. (AAC),[4]; [9],LAC1
same,HT-XRPD Vac.,[4]; thermocycling in DME,LAC1
same,HT-XRPD Vac. (AAC),[4]; thermocycling in DME,LAC1
same,HT-XRPD Vac.,[4]; thermocycling in EtOAc,LAC1
same,HT-XRPD Vac. (AAC),[4]; thermocycling in EtOAc,LAC1
same,HT-XRPD Vac.,[4]; thermocycling in EtOH,LAC1
same,HT-XRPD Vac. (AAC),[4]; thermocycling in EtOH,LAC1
same,HT-XRPD Evap.,[4]; [10],LAC1
same,HT-XRPD Evap. (AAC),[4]; [10],LAC1
same,HT-XRPD Vac.,[4]; [10],LAC1
same,HT-XRPD Vac. (AAC),[4]; [10],LAC1
same,HT-XRPD Vac.,[4]; thermocycling in IPA,LAC1
same,HT-XRPD Vac. (AAC),[4]; thermocycling in IPA,LAC1
same,HT-XRPD Vac.,[4]; [11],LAC1
same,HT-XRPD Vac. (AAC),[4]; [11],LAC1
same,HT-XRPD Vac.,[4]; thermocycling in MEK,LAC1
same,HT-XRPD Vac. (AAC),[4]; thermocycling in MEK,LAC1
same,HT-XRPD Evap.,[4]; thermocycling in MeOH,Oil
same,HT-XRPD Evap. (AAC),[4]; thermocycling in MeOH,Oil
same,HT-XRPD Vac.,[4]; thermocycling in TBME,LAC1
same,HT-XRPD Vac. (AAC),[4]; thermocycling in TBME,LAC1
same,HT-XRPD Vac.,[4]; thermocycling in THF,LAC1
same,HT-XRPD Vac. (AAC),[4]; thermocycling in THF,LAC1
same,HT-XRPD Evap.,[4]; thermocycling in Water,LAC1
same,HT-XRPD Evap. (AAC),[4]; thermocycling in Water,LAC1
same,HT-XRPD Vac.,[4]; thermocycling in Water,ly
same,HT-XRPD Vac. (AAC),[4]; thermocycling in Water,ly
same,dissolution rate compared with TFA2 and TFA1,[5],significantly faster
same,IDR (mg/cm^2/min) Average,"[5]; FaSSIF, 37° C., 100 rpm",0.39 ± 0.11 mg/cm^2/min
same,IDR (mg/cm^2/min) Individual,"[5]; FaSSIF, 37° C., 100 rpm",0.285 mg/cm^2/min and 0.510 mg/cm^2/min and 0.389 mg/cm^2/min
same,IDR (mg/cm^2/min) Average,"[5]; Water, 37° C., 100 rpm",1.87 ± 0.06 mg/cm^2/min
same,IDR (mg/cm^2/min) Individual,"[5]; Water, 37° C., 100 rpm",1.870 mg/cm^2/min and 1.811 mg/cm^2/min and 1.933 mg/cm^2/min
same,time until the whole tablet has been dissolved,"[5]; water, 37° C.",about 50 min
same,Intrinsic Dissolution Rate (IDR),"[5]; water, 37° C., 100 rpm, linear part (LAC1 1 to 36 min; TFA 10-100 min)",1.87±0.06 mg/cm^2/min
same,UPLC t0,[6]; chemical purity at start of stability study,99.4%
same,UPLC 1 week,[6]; [12],99.4%
same,UPLC 3 weeks,[6]; [12],99.4%
same,UPLC 3 days,[6]; [12],99.4%
same,UPLC 1 week,[6]; [13],99.2%
same,UPLC 3 weeks,[6]; [13],99.4%
same,UPLC 3 days,[6]; [13],99.4%
same,physical and chemical stability,[6]; incubation for 3 weeks at 25° C./60% RH and 40° C./75% RH,physically and chemically stable
same,TGMS 1 week,[6]; [12],<0.1% water
same,XRPD 1 week,[6]; [12],LAC1
same,TGMS 3 weeks,[6]; [12],<0.1% water
same,XRPD 3 weeks,[6]; [12],LAC1
same,TGMS 3 days,[6]; [12],1.2% water
same,XRPD 3 days,[6]; [12],LAC1
same,TGMS 1 week,[6]; [13],0.2% water
same,XRPD 1 week,[6]; [13],LAC1
same,TGMS 3 weeks,[6]; [13],<0.1% water
same,XRPD 3 weeks,[6]; [13],LAC1
same,TGMS 3 days,[6]; [13],1.5% water
same,XRPD 3 days,[6]; [13],LAC1
same,TGMS t0,[6]; start of stability study,0.4% water
same,XRPD t0,[6]; start of stability study,LAC1
same,solubility compared with the TFA salts,[7]; overall conclusion of Example 3,significantly higher solubility
same,XRPD 1 h Amb.,"[7]; residual solid after 1 h in water at 37° C., ambient-dried",LAC1
same,XRPD 1 h Vac.,"[7]; residual solid after 1 h in water at 37° C., vacuum-dried",LAC1
same,XRPD 18 h Amb.,"[7]; residual solid after 18 h in water at 37° C., ambient-dried",Am
same,XRPD 18 h Vac.,"[7]; residual solid after 18 h in water at 37° C., vacuum-dried",LAC1
same,pH after 10 min,[7]; [14],5.9
same,pH after 1 h,[7]; [14],5.8
same,pH after 18 h,[7]; [14],5.8
same,Solubility (mg/mL) 1 h,"[7]; water, 37° C., 1 h (kinetic), UPLC",24.3 mg/mL
same,Solubility (mg/mL) 18 h,"[7]; water, 37° C., 18 h (thermodynamic), UPLC",23.6 mg/mL
same,Physically stable?,"[8]; AAC, 2 days at 40° C. and 75% RH, solids from thermocycling",Yes
same,Physically stable after AAC,"[8]; Example 1, 40° C./75% RH for 2 days",physically stable and Yes
same,physical stability upon exposure to AAC,"[8]; Example 3 thermocycling solids, 2 days at 40° C. and 75% RH",physically stable

# Source: US20250002463A1, “NEW SALT FORMS OF AMILORIDE AND ITS DERIVATIVES FOR PHARMACEUTICAL USE” (PSOMRI Holding AB, priority 2021, published 2025)
